Experimental data: the supplement of paper PMC10733146

How the values were obtained:
Experiment in all cases: viability relative to DMSO control (fraction); higher = less drug effect (more viable cells)
Settings in all cases: 48 h
[1] = compound: COc1cc(C(=O)O)ccc1NC(=O)[C@@H]1N[C@@H](CC(C)(C)C)[C@](C#N)(c2ccc(Cl)cc2F)[C@H]1c1cccc(Cl)c1F [Idasanutlin (RS7388)]
Summary of the method: (§1)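 Cells were incubated for 48 h at 37 °C and 5% CO2 in RPMI-1640 with penicillin/streptomycin, L-glutamine and human serum, at 4 × 10^4 cells per well in 384-well plates with compounds pre-plated at five concentrations, one well each. These were primary mononuclear tumour cells, fresh or cryopreserved, Ficoll-isolated from blood or bone marrow or obtained from processed lymph node. Viability values are CellTiter-Glo luminescence relative to the median of 16 inner DMSO wells.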

[2] = compound: Cn1c(CCCC(=O)O)nc2cc(N(CCCl)CCCl)ccc21 [Bendamustine]
Summary of the method: as §1

[3] = compound: COc1cc([C@@H]2c3cc4c(cc3[C@@H](O[C@@H]3O[C@@H]5CO[C@@H](C)O[C@H]5[C@H](O)[C@H]3O)[C@H]3COC(=O)[C@H]23)OCO4)cc(OC)c1O [Etoposide]
Summary of the method: as §1

[4] = compound: C[C@H](Nc1ncnc2nc[nH]c12)c1cc2cccc(Cl)c2c(=O)n1-c1ccccc1 [Duvelisib]
Summary of the method: as §1

[5] = compound: Nc1cccc2c1C(=O)N(C1CCC(=O)NC1=O)C2=O [Pomalidomide]
Summary of the method: as §1

[6] = compound: c1cn2cc(-c3ccc4cn[nH]c4c3)nc(Nc3ccc(N4CCOCC4)cc3)c2n1 [Entospletinib]
Summary of the method: as §1

[7] = compound: O=C(O)CCCc1ccc(N(CCCl)CCCl)cc1 [Chlorambucil]
Summary of the method: as §1

[8] = compound: CO[C@H]1C[C@@H]2CC[C@@H](C)[C@@](O)(O2)C(=O)C(=O)N2CCCC[C@H]2C(=O)O[C@H]([C@H](C)C[C@@H]2CC[C@@H](OCCO)[C@H](OC)C2)CC(=O)[C@H](C)/C=C(\C)[C@@H](O)[C@@H](OC)C(=O)[C@H](C)C[C@H](C)/C=C/C=C/C=C/1C [Everolimus]
Summary of the method: as §1

[9] = compound: CC[C@]1(O)C[C@@H]2CN(CCc3c([nH]c4ccccc34)[C@@](C(=O)OC)(c3cc4c(cc3OC)N(C)[C@H]3[C@@](O)(C(N)=O)[C@H](O)[C@]5(CC)C=CCN6CC[C@]43[C@@H]65)C2)C1 [Vindesine]
Summary of the method: as §1

[10] = compound: CC(C)N(CCCNC(=O)Nc1ccc(C(C)(C)C)cc1)C[C@H]1O[C@@H](n2cc(Br)c3c(N)ncnc32)[C@H](O)[C@@H]1O [SGC 0946]
Summary of the method: as §1

[11] = compound: CC[C@H](CO)Nc1nc(NCc2ccccc2)c2ncn(C(C)C)c2n1 [Roscovitine]
Summary of the method: as §1

[12] = compound: CO[C@@H]1[C@H](N(C)C(=O)c2ccccc2)C[C@H]2O[C@]1(C)n1c3ccccc3c3c4c(c5c6ccccc6n2c5c31)C(=O)NC4 [Midostaurin hydrate]
Summary of the method: as §1

[13] = compound: O=C(Nc1ccc2[nH]nc(-c3ccncc3)c2c1)[C@@H]1CCN(CC(=O)N2CCN(c3ccc(-c4ncccn4)cc3)CC2)C1
Summary of the method: as §1

[14] = compound: C[C@@H]1CCN(C(=O)CC#N)C[C@@H]1N(C)c1ncnc2[nH]ccc12 [Tofacitinib]
Summary of the method: as §1

## primary DLBCL patient cells (S082)
[1]; 0.032 µM
  viability: 0.954
[1]; 0.16 µM
  viability: 1.08
[1]; 0.8 µM
  viability: 1.09
[1]; 4 µM
  viability: 0.924
[1]; 20 µM
  viability: 1.13
[2]; 0.032 µM
  viability: 1.04
[2]; 0.16 µM
  viability: 1.09
[2]; 0.8 µM
  viability: 1.07
[2]; 4 µM
  viability: 1.04
[2]; 20 µM
  viability: 0.962
[3]; 0.032 µM
  viability: 1.08
[3]; 0.16 µM
  viability: 1.02
[3]; 0.8 µM
  viability: 0.974
[3]; 4 µM
  viability: 1
[3]; 20 µM
  viability: 0.664
[4]; 0.0016 µM
  viability: 0.758
[4]; 0.008 µM
  viability: 0.689
[4]; 0.04 µM
  viability: 0.679
[4]; 0.2 µM
  viability: 0.65
[4]; 1 µM
  viability: 0.619
[5]; 0.0032 µM
  viability: 0.93
[5]; 0.016 µM
  viability: 1.08
[5]; 0.08 µM
  viability: 1.14
[5]; 0.4 µM
  viability: 1.02
[5]; 2 µM
  viability: 1.04
[6]; 0.024 µM
  viability: 1.04
[6]; 0.12 µM
  viability: 1.03
[6]; 0.6 µM
  viability: 0.89
[6]; 3 µM
  viability: 0.98
[6]; 15 µM
  viability: 0.926
[7]; 0.032 µM
  viability: 1.07
[7]; 0.16 µM
  viability: 0.989
[7]; 0.8 µM
  viability: 1.06
[7]; 4 µM
  viability: 1
[7]; 20 µM
  viability: 0.831
[8]; 0.0032 µM
  viability: 0.892
[8]; 0.016 µM
  viability: 0.816
[8]; 0.08 µM
  viability: 0.841
[8]; 0.4 µM
  viability: 0.782
[8]; 2 µM
  viability: 0.807
[9]; 0.016 µM
  viability: 0.728
[9]; 0.08 µM
  viability: 0.56
[9]; 0.4 µM
  viability: 0.532
[9]; 2 µM
  viability: 0.421
[9]; 10 µM
  viability: 0.366
[10]; 0.024 µM
  viability: 0.899
[10]; 0.12 µM
  viability: 0.975
[10]; 0.6 µM
  viability: 0.932
[10]; 3 µM
  viability: 0.91
[10]; 15 µM
  viability: 0.834
[11]; 0.032 µM
  viability: 0.912
[11]; 0.16 µM
  viability: 0.84
[11]; 0.8 µM
  viability: 0.935
[11]; 4 µM
  viability: 0.975
[11]; 20 µM
  viability: 0.852
[12]; 0.024 µM
  viability: 1.03
[12]; 0.12 µM
  viability: 0.986
[12]; 0.6 µM
  viability: 0.999
[12]; 3 µM
  viability: 0.814
[12]; 15 µM
  viability: 0.224
[13]; 0.008 µM
  viability: 0.875
[13]; 0.04 µM
  viability: 0.771
[13]; 0.2 µM
  viability: 0.809
[13]; 1 µM
  viability: 0.79
[13]; 5 µM
  viability: 0.743
[14]; 0.024 µM
  viability: 0.93
[14]; 0.12 µM
  viability: 0.941
[14]; 0.6 µM
  viability: 0.967
[14]; 3 µM
  viability: 1.08
[14]; 15 µM
  viability: 1.02

## primary ALL patient cells (S088)
[1]; 0.032 µM
  viability: 0.557
[1]; 0.16 µM
  viability: 0.423
[1]; 0.8 µM
  viability: 0.286
[1]; 4 µM
  viability: 0.155
[1]; 20 µM
  viability: 0.132
[2]; 0.032 µM
  viability: 1
[2]; 0.16 µM
  viability: 1.07
[2]; 0.8 µM
  viability: 1
[2]; 4 µM
  viability: 0.929
[2]; 20 µM
  viability: 0.679
[3]; 0.032 µM
  viability: 0.996
[3]; 0.16 µM
  viability: 0.93
[3]; 0.8 µM
  viability: 0.856
[3]; 4 µM
  viability: 0.607
[3]; 20 µM
  viability: 0.216
[4]; 0.0016 µM
  viability: 0.927
[4]; 0.008 µM
  viability: 0.988
[4]; 0.04 µM
  viability: 0.879
[4]; 0.2 µM
  viability: 0.85
[4]; 1 µM
  viability: 0.691
[5]; 0.0032 µM
  viability: 0.934
[5]; 0.016 µM
  viability: 1.08
[5]; 0.08 µM
  viability: 1.15
[5]; 0.4 µM
  viability: 1.05
[5]; 2 µM
  viability: 1.1
[6]; 0.024 µM
  viability: 1.01
[6]; 0.12 µM
  viability: 1.06
[6]; 0.6 µM
  viability: 0.954
[6]; 3 µM
  viability: 0.986
[6]; 15 µM
  viability: 1.02
[7]; 0.032 µM
  viability: 1.02
[7]; 0.16 µM
  viability: 1
[7]; 0.8 µM
  viability: 0.981
[7]; 4 µM
  viability: 0.71
[7]; 20 µM
  viability: 0.267
[8]; 0.0032 µM
  viability: 0.871
[8]; 0.016 µM
  viability: 0.782
[8]; 0.08 µM
  viability: 0.76
[8]; 0.4 µM
  viability: 0.739
[8]; 2 µM
  viability: 0.74
[9]; 0.016 µM
  viability: 0.633
[9]; 0.08 µM
  viability: 0.464
[9]; 0.4 µM
  viability: 0.37
[9]; 2 µM
  viability: 0.317
[9]; 10 µM
  viability: 0.255
[10]; 0.024 µM
  viability: 0.722
[10]; 0.12 µM
  viability: 0.733
[10]; 0.6 µM
  viability: 0.667
[10]; 3 µM
  viability: 0.681
[10]; 15 µM
  viability: 0.289
[11]; 0.032 µM
  viability: 0.619
[11]; 0.16 µM
  viability: 0.669
[11]; 0.8 µM
  viability: 0.615
[11]; 4 µM
  viability: 0.607
[11]; 20 µM
  viability: 0.319
[12]; 0.024 µM
  viability: 0.899
[12]; 0.12 µM
  viability: 0.858
[12]; 0.6 µM
  viability: 0.717
[12]; 3 µM
  viability: 0.489
[12]; 15 µM
  viability: 0.265
[13]; 0.008 µM
  viability: 0.545
[13]; 0.04 µM
  viability: 0.445
[13]; 0.2 µM
  viability: 0.393
[13]; 1 µM
  viability: 0.341
[13]; 5 µM
  viability: 0.297
[14]; 0.024 µM
  viability: 0.703
[14]; 0.12 µM
  viability: 0.707
[14]; 0.6 µM
  viability: 0.702
[14]; 3 µM
  viability: 0.78
[14]; 15 µM
  viability: 0.662
